The assay addresses KRas G12D (Homo sapiens (Human), UniProt P01116, G12D). Kind of assay: KRas G12D Binding Assay (TR-FRET displacement of Cy5 labelled tracer). The conditions noted are these: GDP-loaded KRAS G12D (amino acids 1:169), 60 minute incubation at 22° C. As to the method:
After a 60 minute incubation at 22° C., the reaction was measured using a PerkinElmer EnVision multimode plate reader via TR-FRET dual wavelength detection, and the percent of control (POC) calculated using a ratiometric emission factor. […] The POC values were fit to a 4-parameter logistic curve and the IC50 value was determined as the concentration where the curve crosses 50 POC.
ND stands for “not determined.”
On the technique in general: In TR-FRET formats the signal depends on donor and acceptor labels being close together.

Structures are written as SMILES.

KRas G12D, sequence (P01116 other isoform, or with tags, fused parts or gaps G12D): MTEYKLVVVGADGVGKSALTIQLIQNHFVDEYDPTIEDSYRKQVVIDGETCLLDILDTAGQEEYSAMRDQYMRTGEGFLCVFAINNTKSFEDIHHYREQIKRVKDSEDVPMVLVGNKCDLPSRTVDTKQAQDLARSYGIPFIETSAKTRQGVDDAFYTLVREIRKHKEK

For the compound `Oc1c(F)cc(F)c(-c2ncc3c(N4C[C@H]5CC[C@@H](C4)N5)nc(OCC45CCCN4CCC5)nc3c2F)c1F` [Example 350, 3-(4-((1R,5S)-3,8-diazabicyclo[3.2.1]octan-3-yl)-8-fluoro-2-((tetrahydro-1H-pyrrolizin-7a(5H)-yl)methoxy)pyrido[4,3-d]pyrimidin-7-yl)-2,4,6-trifluorophenol], the half-inhibitory concentration (IC50) (in general, the concentration needed to halve the response being measured) was determined as 3820 nM.

For the compound `CO[C@H]1CN[C@H](COc2nc(N3C[C@H]4CC[C@@H](C3)N4)c3cnc(-c4cccc5cccc(Cl)c45)c(F)c3n2)C1` [Example 351, 4-((1R,5S)-3,8-diazabicyclo[3.2.1]octan-3-yl)-7-(8-chloronaphthalen-1-yl)-8-fluoro-2-(((2S,4R)-4-methoxypyrrolidin-2-yl)methoxy)pyrido[4,3-d]pyrimidine], the half-maximal inhibitory concentration (IC50) worked out at 94.8 nM. The value for `Fc1c(-c2cccc3cccc(Cl)c23)ncc2c(N3CC4CCC(C3)N4)nc(OC[C@@H]3CC(F)(F)CN3)nc12` [Example 352, 4-((1R,5S)-3,8-diazabicyclo[3.2.1]octan-3-yl)-7-(8-chloronaphthalen-1-yl)-2-(((S)-4,4-difluoropyrrolidin-2-yl)methoxy)-8-fluoropyrido[4,3-d]pyrimidine bis(2,2,2-trifluoroacetate)] was 845 nM.

On to `CN1C[C@H](NC(=O)c2ccc(C=O)cc2)C[C@H]1COc1nc(N2C[C@H]3CC[C@@H](C2)N3)c2cnc(-c3cccc4cccc(Cl)c34)c(F)c2n1` [Example 353, N-((3R,5S)-5-(((4-((1R,5S)-3,8-diazabicyclo[3.2.1]octan-3-yl)-7-(8-chloronaphthalen-1-yl)-8-fluoropyrido[4,3-d]pyrimidin-2-yl)oxy)methyl)-1-methylpyrrolidin-3-yl)-4-formylbenzamide], for which the IC50 came to 333 nM.

Turning to `CN1C[C@H](NC(=O)c2cccc(C=O)c2)C[C@H]1COc1nc(N2C[C@H]3CC[C@@H](C2)N3)c2cnc(-c3cccc4cccc(Cl)c34)c(F)c2n1` [Example 354, N-((3R,5S)-5-(((4-((1R,5S)-3,8-diazabicyclo[3.2.1]octan-3-yl)-7-(8-chloronaphthalen-1-yl)-8-fluoropyrido[4,3-d]pyrimidin-2-yl)oxy)methyl)-1-methylpyrrolidin-3-yl)-3-formylbenzamide], the IC50 worked out at 368 nM. The same measure for `CN1C[C@H](NC(=O)c2ccccc2C=O)C[C@H]1COc1nc(N2C[C@H]3CC[C@@H](C2)N3)c2cnc(-c3cccc4cccc(Cl)c34)c(F)c2n1` [Example 355, N-((3R,5S)-5-(((4-((1R,5S)-3,8-diazabicyclo[3.2.1]octan-3-yl)-7-(8-chloronaphthalen-1-yl)-8-fluoropyrido[4,3-d]pyrimidin-2-yl)oxy)methyl)-1-methylpyrrolidin-3-yl)-2-formylbenzamide]: 870 nM; for `CN1CC[C@@H](COc2nc(N3C[C@H]4CC[C@@H](C3)N4)c3cnc(-c4cccc5cccc(Cl)c45)c(F)c3n2)C1` [Example 356, 4-((1R,5S)-3,8-diazabicyclo[3.2.1]octan-3-yl)-7-(8-chloronaphthalen-1-yl)-8-fluoro-2-(((R)-1-methylpyrrolidin-3-yl)methoxy)pyrido[4,3-d]pyrimidine]: 87.2 nM; for `CN1CC[C@H](COc2nc(N3C[C@H]4CC[C@@H](C3)N4)c3cnc(-c4cccc5cccc(Cl)c45)c(F)c3n2)C1` [Example 357, 4-((1R,5S)-3,8-diazabicyclo[3.2.1]octan-3-yl)-7-(8-chloronaphthalen-1-yl)-8-fluoro-2-(((S)-1-methylpyrrolidin-3-yl)methoxy)pyrido[4,3-d]pyrimidine]: 438 nM. The value for `CN1CC[C@@H](Oc2nc(N3C[C@H]4CC[C@@H](C3)N4)c3cnc(-c4cccc5cccc(Cl)c45)c(F)c3n2)C1` [Example 358, 4-((1R,5S)-3,8-diazabicyclo[3.2.1]octan-3-yl)-7-(8-chloronaphthalen-1-yl)-8-fluoro-2-(((R)-1-methylpyrrolidin-3-yl)oxy)pyrido[4,3-d]pyrimidine] was 1980 nM. The same measure for `CN1CC[C@H](Oc2nc(N3C[C@H]4CC[C@@H](C3)N4)c3cnc(-c4cccc5cccc(Cl)c45)c(F)c3n2)C1` [Example 359, 4-((1R,5S)-3,8-diazabicyclo[3.2.1]octan-3-yl)-7-(8-chloronaphthalen-1-yl)-8-fluoro-2-(((S)-1-methylpyrrolidin-3-yl)oxy)pyrido[4,3-d]pyrimidine]: 1640 nM.

`COc1nc(N2C[C@H]3CC[C@@H](C2)N3)c2cnc(-c3cc(O)cc4cccc(Cl)c34)c(F)c2n1` [Example 360, 4-(4-((1R,5S)-3,8-diazabicyclo[3.2.1]octan-3-yl)-8-fluoro-2-methoxypyrido[4,3-d]pyrimidin-7-yl)-5-chloronaphthalen-2-ol] yielded an IC50 of 50.8 nM. The same measure for `CNC(C)COc1nc(N2CC3CCC(C2)N3)c2cnc(-c3cccc4cccc(Cl)c34)c(F)c2n1` (stereo not drawn) [Example 363, bis(2,2,2-trifluoroacetate)]: 3930 nM; for `Oc1cc(-c2ncc3c(N4C[C@H]5CC[C@@H](C4)N5)nc(OCC45CCCN4CCC5)nc3c2F)c2c(F)cccc2c1` [Example 367, 4-(4-((1R,5S)-3,8-diazabicyclo[3.2.1]octan-3-yl)-8-fluoro-2-((tetrahydro-1H-pyrrolizin-7a(5H)-yl)methoxy)pyrido[4,3-d]pyrimidin-7-yl)-5-fluoronaphthalen-2-ol tris(2,2,2-trifluoroacetate)]: 0.7 nM; for `Fc1c(-c2ccccc2C(F)(F)F)ncc2c(N3C[C@H]4CC[C@@H](C3)N4)nc(OCC34CCCN3CCC4)nc12` [Example 370, 4-((1R,5S)-3,8-diazabicyclo[3.2.1]octan-3-yl)-8-fluoro-2-((tetrahydro-1H-pyrrolizin-7a(5H)-yl)methoxy)-7-(2-(trifluoromethyl)phenyl)pyrido[4,3-d]pyrimidine]: 86.1 nM.

Consider `Oc1ccc(C(F)(F)F)c(-c2ncc3c(N4C[C@H]5CC[C@@H](C4)N5)nc(OCC45CCCN4CCC5)nc3c2F)c1` [Example 373, 3-(4-((1R,5S)-3,8-diazabicyclo[3.2.1]octan-3-yl)-8-fluoro-2-((tetrahydro-1H-pyrrolizin-7a(5H)-yl)methoxy)pyrido[4,3-d]pyrimidin-7-yl)-4-(trifluoromethyl)phenol], for which the concentration for half-maximal inhibition (IC50) is 1.6 nM.

For the compound `C[C@H](N)COc1nc(N2CC3CCC(C2)N3)c2cnc(-c3cccc4cccc(Cl)c34)c(F)c2n1` [Example 374, (S)-1-((4-((1R,5S)-3,8-diazabicyclo[3.2.1]octan-3-yl)-7-(8-chloronaphthalen-1-yl)-8-fluoropyrido[4,3-d]pyrimidin-2-yl)oxy)propan-2-amine bis(2,2,2-trifluoroacetate)], the IC50 is 348 nM.

`CN1CCc2cccc(Oc3nc(N4C[C@H]5CC[C@@H](C4)N5)c4cnc(-c5cccc6cccc(Cl)c56)c(F)c4n3)c2C1` [Example 378, 4-((1R,5S)-3,8-diazabicyclo[3.2.1]octan-3-yl)-7-(8-chloronaphthalen-1-yl)-8-fluoro-2-((2-methyl-1,2,3,4-tetrahydroisoquinolin-8-yl)oxy)pyrido[4,3-d]pyrimidine] gave an IC50 of 6250 nM. The same measure for `CC(C)(N)COc1nc(N2CC3CCC(C2)N3)c2cnc(-c3cccc4cccc(Cl)c34)c(F)c2n1` [Example 387, bis(2,2,2-trifluoroacetate)]: 533 nM; for `Oc1cccc(OC(F)(F)F)c1-c1ncc2c(N3CC4CCC(C3)N4)nc(OC[C@@]34CCCN3C[C@H](F)C4)nc2c1F` [Example 392, 2-(4-((1R,5S)-3,8-diazabicyclo[3.2.1]octan-3-yl)-8-fluoro-2-((2-fluorotetrahydro-1-H-pyrrolizin-7a(5H)-yl)methoxy)pyrido[4,3-d]pyrimidin-7-yl)-3-(trifluoromethoxy)phenol]: 208 nM; for `Oc1cc(-c2ncc3c(N4C[C@H]5CC[C@@H](C4)N5)nc(OCCC(F)(F)F)nc3c2F)c2c(Cl)cccc2c1` [Example 393, 4-(4-((1R,5S)-3,8-diazabicyclo[3.2.1]octan-3-yl)-8-fluoro-2-(3,3,3-trifluoropropoxy)pyrido[4,3-d]pyrimidin-7-yl)-5-chloronaphthalen-2-ol]: 76.3 nM.

`CC(C)c1cccc(C(C)C)c1-c1ncc2c(N3C[C@H]4CC[C@@H](C3)N4)nc(OCC34CCCN3CC(F)C4)nc2c1F` (stereo partly drawn) [Example 394, 4-((1R,5S)-3,8-diazabicyclo[3.2.1]octan-3-yl)-7-(2,6-diisopropylphenyl)-8-fluoro-2-((2-fluorotetrahydro-1H-pyrrolizin-7a(5H)-yl)methoxy)pyrido[4,3-d]pyrimidine] showed a half-maximal inhibitory concentration (IC50) of 2500 nM. `CN1CCC(F)(COc2nc(N3C[C@H]4CC[C@@H](C3)N4)c3cnc(-c4cccc5cccc(Cl)c45)c(F)c3n2)CC1` [Example 398, 4-((1R,5S)-3,8-diazabicyclo[3.2.1]octan-3-yl)-7-(8-chloronaphthalen-1-yl)-8-fluoro-2-((4-fluoro-1-methylpiperidin-4-yl)methoxy)pyrido[4,3-d]pyrimidine] showed an IC50 of 593 nM. The value for `Oc1cc(-c2ncc3c(N4C[C@H]5CC[C@@H](C4)N5)nc(OCC45CCCN4C(CF)CC5)nc3c2F)c2c(Cl)cccc2c1` (stereo partly drawn) [Example 400, 4-(4-((1R,5S)-3,8-diazabicyclo[3.2.1]octan-3-yl)-8-fluoro-2-((3-(fluoromethyl)tetrahydro-1H-pyrrolizin-7a(5H)-yl)methoxy)pyrido[4,3-d]pyrimidin-7-yl)-5-chloronaphthalen-2-ol] was 4.2 nM; that for `CC(C)c1ccc(O)cc1-c1ncc2c(N3C[C@H]4CC[C@@H](C3)N4)nc(OCC34CCCN3CCC4)nc2c1F` [Example 403, 3-(4-((1R,5S)-3,8-diazabicyclo[3.2.1]octan-3-yl)-8-fluoro-2-((tetrahydro-1H-pyrrolizin-7a(5H)-yl)methoxy)pyrido[4,3-d]pyrimidin-7-yl)-4-isopropylphenol] was 1.9 nM.

(Values after patent publication US20230279025A1, “KRAS G12D INHIBITORS” (Mirati Therapeutics, Inc., priority 2020, published 2023).)
